Test results from patent publication US5843889A, “Glycopeptide antibiotic derivatives” (Eli Lilly and Company, priority 1997, dated 1998).
In brackets after ≈: the same amount, converted by molar mass.

Columns and labels:
Experiment in all cases: MIC, standard broth micro-dilution assay
Type in all cases: cell-based
[1] = system: Entercoccus gallinarum 245
Experimental: (§1) The formula I compounds have in vitro and in vivo activity against Gram-positive pathogenic bacteria. The MIC's were determined using a standard broth micro-dilution assay.

[2] = system: Entercoccus faecalis 2041
Experimental: as §1

[3] = system: Entercoccus faecalis 276
Experimental: as §1

| SMILES | MIC [1] [µg/mL] | MIC [2] [µg/mL] | MIC [3] [µg/mL] |
| --- | --- | --- | --- |
| CNC(CC(C)C)C(=O)NC1C(=O)NC(CC(N)=O)C(=O)NC2C(=O)NC3C(=O)NC(C(=O)NC(C(=O)O)c4cc(O)cc(O)c4-c4cc3ccc4O)C(OC3CC(C)(N)C(O)C(C)O3)c3ccc(c(Cl)c3)Oc3cc2cc(c3OC2OC(CO)C(O)C(O)C2OC2CC(C)(NCc3ccc(S(=O)(=O)N4CCCC4)cc3)C(O)C(C)O2)Oc2ccc(cc2Cl)C1O (stereo not drawn) [Compound 174, 4-[1-pyrrolidinosulfonyl]benzyl] | 16 (≈ 8.81 µM) | ≤ 0.06 | ≤ 0.06 |
| CNC(CC(C)C)C(=O)NC1C(=O)NC(CC(N)=O)C(=O)NC2C(=O)NC3C(=O)NC(C(=O)NC(C(=O)O)c4cc(O)cc(O)c4-c4cc3ccc4O)C(OC3CC(C)(N)C(O)C(C)O3)c3ccc(c(Cl)c3)Oc3cc2cc(c3OC2OC(CO)C(O)C(O)C2OC2CC(C)(NCc3ccc(NC(=O)c4ccc(F)cc4)cc3)C(O)C(C)O2)Oc2ccc(cc2Cl)C1O (stereo not drawn) [Compound 193, 4-[(4-fluorobenzoyl)amino]benzyl] | 1 (≈ 0.55 µM) | ≤ 0.06 | ≤ 0.06 |
| CNC(CC(C)C)C(=O)NC1C(=O)NC(CC(N)=O)C(=O)NC2C(=O)NC3C(=O)NC(C(=O)NC(C(=O)O)c4cc(O)cc(O)c4-c4cc3ccc4O)C(OC3CC(C)(N)C(O)C(C)O3)c3ccc(c(Cl)c3)Oc3cc2cc(c3OC2OC(CO)C(O)C(O)C2OC2CC(C)(NCc3ccc(Oc4ccccc4Cl)c([N+](=O)[O-])c3)C(O)C(C)O2)Oc2ccc(cc2Cl)C1O (stereo not drawn) [Compound 88, 4-[2-chlorophenoxy]-3-nitrobenzyl] | ≤ 0.06 | ≤ 0.06 | ≤ 0.06 |
| CNC(CC(C)C)C(=O)NC1C(=O)NC(CC(N)=O)C(=O)NC2C(=O)NC3C(=O)NC(C(=O)NC(C(=O)O)c4cc(O)cc(O)c4-c4cc3ccc4O)C(OC3CC(C)(N)C(O)C(C)O3)c3ccc(c(Cl)c3)Oc3cc2cc(c3OC2OC(CO)C(O)C(O)C2OC2CC(C)(NCc3ccc(Oc4ccccc4[N+](=O)[O-])cc3)C(O)C(C)O2)Oc2ccc(cc2Cl)C1O (stereo not drawn) [Compound 70, 4-[2-nitrophenoxy]benzyl] | 2 (≈ 1.1 µM) | ≤ 0.06 | ≤ 0.06 |
| CNC(CC(C)C)C(=O)NC1C(=O)NC(CC(N)=O)C(=O)NC2C(=O)NC3C(=O)NC(C(=O)NC(C(=O)O)c4cc(O)cc(O)c4-c4cc3ccc4O)C(OC3CC(C)(N)C(O)C(C)O3)c3ccc(c(Cl)c3)Oc3cc2cc(c3OC2OC(CO)C(O)C(O)C2OC2CC(C)(NCc3ccc(OC)c4ccccc34)C(O)C(C)O2)Oc2ccc(cc2Cl)C1O (stereo not drawn) [Compound 15, 4-methoxy-1-naphthylmethyl] | ≤ 0.06 | ≤ 0.06 | ≤ 0.06 |
| CNC(CC(C)C)C(=O)NC1C(=O)NC(CC(N)=O)C(=O)NC2C(=O)NC3C(=O)NC(C(=O)NC(C(=O)O)c4cc(O)cc(O)c4-c4cc3ccc4O)C(OC3CC(C)(N)C(O)C(C)O3)c3ccc(c(Cl)c3)Oc3cc2cc(c3OC2OC(CO)C(O)C(O)C2OC2CC(C)(NCc3ccc(-c4ccc([N+](=O)[O-])cc4)cc3)C(O)C(C)O2)Oc2ccc(cc2Cl)C1O (stereo not drawn) [Compound 64, 4-[4-nitrophenyl]benzyl] | 2 (≈ 1.11 µM) | ≤ 0.06 | 0.5 (≈ 0.277 µM) |
| CNC(CC(C)C)C(=O)NC1C(=O)NC(CC(N)=O)C(=O)NC2C(=O)NC3C(=O)NC(C(=O)NC(C(=O)O)c4cc(O)cc(O)c4-c4cc3ccc4O)C(OC3CC(C)(N)C(O)C(C)O3)c3ccc(c(Cl)c3)Oc3cc2cc(c3OC2OC(CO)C(O)C(O)C2OC2CC(C)(NCc3ccc(-c4cccc(C)c4)cc3)C(O)C(C)O2)Oc2ccc(cc2Cl)C1O (stereo not drawn) [Compound 224, 4-[3-methylphenyl]benzyl] | 0.5 (≈ 0.282 µM) | ≤ 0.06 | ≤ 0.06 |
| CNC(CC(C)C)C(=O)NC1C(=O)NC(CC(N)=O)C(=O)NC2C(=O)NC3C(=O)NC(C(=O)NC(C(=O)O)c4cc(O)cc(O)c4-c4cc3ccc4O)C(OC3CC(C)(N)C(O)C(C)O3)c3ccc(c(Cl)c3)Oc3cc2cc(c3OC2OC(CO)C(O)C(O)C2OC2CC(C)(NCc3cccc(Sc4ccc(C(C)(C)C)cc4)c3)C(O)C(C)O2)Oc2ccc(cc2Cl)C1O (stereo not drawn) [Compound 228, 3-[4-t-butyl-phenylthio]benzyl] | 4 (≈ 2.17 µM) | 0.25 (≈ 0.135 µM) | 1 (≈ 0.541 µM) |
| CNC(CC(C)C)C(=O)NC1C(=O)NC(CC(N)=O)C(=O)NC2C(=O)NC3C(=O)NC(C(=O)NC(C(=O)O)c4cc(O)cc(O)c4-c4cc3ccc4O)C(OC3CC(C)(N)C(O)C(C)O3)c3ccc(c(Cl)c3)Oc3cc2cc(c3OC2OC(CO)C(O)C(O)C2OC2CC(C)(NCc3ccc4ccccc4n3)C(O)C(C)O2)Oc2ccc(cc2Cl)C1O (stereo not drawn) [Compound 30, 2-quinolylmethyl] | ≤ 0.06 | ≤ 0.06 | 0.25 (≈ 0.144 µM) |
| CNC(CC(C)C)C(=O)NC1C(=O)NC(CC(N)=O)C(=O)NC2C(=O)NC3C(=O)NC(C(=O)NC(C(=O)O)c4cc(O)cc(O)c4-c4cc3ccc4O)C(OC3CC(C)(N)C(O)C(C)O3)c3ccc(c(Cl)c3)Oc3cc2cc(c3OC2OC(CO)C(O)C(O)C2OC2CC(C)(NCC34CC5CC(CC(C5)C3)C4)C(O)C(C)O2)Oc2ccc(cc2Cl)C1O (stereo not drawn) [Compound 141, 1-adamantylmethyl] | 4 (≈ 2.3 µM) | ≤ 0.06 | 0.5 (≈ 0.287 µM) |
| CNC(CC(C)C)C(=O)NC1C(=O)NC(CC(N)=O)C(=O)NC2C(=O)NC3C(=O)NC(C(=O)NC(C(=O)O)c4cc(O)cc(O)c4-c4cc3ccc4O)C(OC3CC(C)(N)C(O)C(C)O3)c3ccc(c(Cl)c3)Oc3cc2cc(c3OC2OC(CO)C(O)C(O)C2OC2CC(C)(NCc3cccc(OCc4ccc5ccccc5n4)c3)C(O)C(C)O2)Oc2ccc(cc2Cl)C1O (stereo not drawn) [Compound 125, 3-[2-quinoylmethoxy]benzyl] | 12 (≈ 6.52 µM) | ≤ 0.06 | 2 (≈ 1.09 µM) |
| CNC(CC(C)C)C(=O)NC1C(=O)NC(CC(N)=O)C(=O)NC2C(=O)NC3C(=O)NC(C(=O)NC(C(=O)O)c4cc(O)cc(O)c4-c4cc3ccc4O)C(OC3CC(C)(N)C(O)C(C)O3)c3ccc(c(Cl)c3)Oc3cc2cc(c3OC2OC(CO)C(O)C(O)C2OC2CC(C)(NCc3ccc(S(=O)(=O)c4ccc(Cl)cc4)cc3)C(O)C(C)O2)Oc2ccc(cc2Cl)C1O (stereo not drawn) [Compound 148, 4-[4-chlorophenylsulfonyl]benzyl] | 2 (≈ 1.08 µM) | ≤ 0.06 | ≤ 0.06 |
| CNC(CC(C)C)C(=O)NC1C(=O)NC(CC(N)=O)C(=O)NC2C(=O)NC3C(=O)NC(C(=O)NC(C(=O)O)c4cc(O)cc(O)c4-c4cc3ccc4O)C(OC3CC(C)(N)C(O)C(C)O3)c3ccc(c(Cl)c3)Oc3cc2cc(c3OC2OC(CO)C(O)C(O)C2OC2CC(C)(NCc3ccc(Oc4cccc(Cl)c4)c([N+](=O)[O-])c3)C(O)C(C)O2)Oc2ccc(cc2Cl)C1O (stereo not drawn) [Compound 87, 4-[3-chlorophenoxy]-3-nitrobenzyl] | 2 (≈ 1.08 µM) | ≤ 0.06 | ≤ 0.06 |
| CNC(CC(C)C)C(=O)NC1C(=O)NC(CC(N)=O)C(=O)NC2C(=O)NC3C(=O)NC(C(=O)NC(C(=O)O)c4cc(O)cc(O)c4-c4cc3ccc4O)C(OC3CC(C)(N)C(O)C(C)O3)c3ccc(c(Cl)c3)Oc3cc2cc(c3OC2OC(CO)C(O)C(O)C2OC2CC(C)(NCc3ccc(OS(=O)(=O)c4c(C)c(C)c(C)c(C)c4C)cc3)C(O)C(C)O2)Oc2ccc(cc2Cl)C1O (stereo not drawn) [Compound 173, 4-[[2,3,4,5,6-pentamethyl]phenylsulfonyloxy]benzyl] | 4 (≈ 2.1 µM) | 0.5 (≈ 0.262 µM) | 2 (≈ 1.05 µM) |
| CNC(CC(C)C)C(=O)NC1C(=O)NC(CC(N)=O)C(=O)NC2C(=O)NC3C(=O)NC(C(=O)NC(C(=O)O)c4cc(O)cc(O)c4-c4cc3ccc4O)C(OC3CC(C)(N)C(O)C(C)O3)c3ccc(c(Cl)c3)Oc3cc2cc(c3OC2OC(CO)C(O)C(O)C2OC2CC(C)(NCc3cnc4ccccc4c3)C(O)C(C)O2)Oc2ccc(cc2Cl)C1O (stereo not drawn) [Compound 28, 3-quinolylmethyl] | 0.25 (≈ 0.144 µM) | 0.25 (≈ 0.144 µM) | ≤ 0.06 |
| CNC(CC(C)C)C(=O)NC1C(=O)NC(CC(N)=O)C(=O)NC2C(=O)NC3C(=O)NC(C(=O)NC(C(=O)O)c4cc(O)cc(O)c4-c4cc3ccc4O)C(OC3CC(C)(N)C(O)C(C)O3)c3ccc(c(Cl)c3)Oc3cc2cc(c3OC2OC(CO)C(O)C(O)C2OC2CC(C)(NCc3ccc(Nc4ccccc4)cc3)C(O)C(C)O2)Oc2ccc(cc2Cl)C1O (stereo not drawn) [Compound 160, 4-anilinobenzyl] | 8 (≈ 4.51 µM) | ≤ 0.06 | 2 (≈ 1.13 µM) |
| CNC(CC(C)C)C(=O)NC1C(=O)NC(CC(N)=O)C(=O)NC2C(=O)NC3C(=O)NC(C(=O)NC(C(=O)O)c4cc(O)cc(O)c4-c4cc3ccc4O)C(OC3CC(C)(N)C(O)C(C)O3)c3ccc(c(Cl)c3)Oc3cc2cc(c3OC2OC(CO)C(O)C(O)C2OC2CC(C)(NCCc3cccc(Oc4ccccc4)c3)C(O)C(C)O2)Oc2ccc(cc2Cl)C1O (stereo not drawn) [Compound 62, 3-phenoxyphenethyl] | 4 (≈ 2.24 µM) | ≤ 0.06 | 0.5 (≈ 0.28 µM) |
| CNC(CC(C)C)C(=O)NC1C(=O)NC(CC(N)=O)C(=O)NC2C(=O)NC3C(=O)NC(C(=O)NC(C(=O)O)c4cc(O)cc(O)c4-c4cc3ccc4O)C(OC3CC(C)(N)C(O)C(C)O3)c3ccc(c(Cl)c3)Oc3cc2cc(c3OC2OC(CO)C(O)C(O)C2OC2CC(C)(NCc3ccc(OCc4ccccc4)c(OCc4ccccc4)c3)C(O)C(C)O2)Oc2ccc(cc2Cl)C1O (stereo not drawn) [Compound 53] | 2 (≈ 1.06 µM) | 1 (≈ 0.528 µM) | 8 (≈ 4.22 µM) |
| CNC(CC(C)C)C(=O)NC1C(=O)NC(CC(N)=O)C(=O)NC2C(=O)NC3C(=O)NC(C(=O)NC(C(=O)O)c4cc(O)cc(O)c4-c4cc3ccc4O)C(OC3CC(C)(N)C(O)C(C)O3)c3ccc(c(Cl)c3)Oc3cc2cc(c3OC2OC(CO)C(O)C(O)C2OC2CC(C)(NCc3c4c(cc5ccccc35)CCCC4)C(O)C(C)O2)Oc2ccc(cc2Cl)C1O (stereo not drawn) [Compound 156, 1,2,3,4,-tetrahydro-9-anthranylmethyl] | 2 (≈ 1.12 µM) | 0.5 (≈ 0.28 µM) | 2 (≈ 1.12 µM) |
